Experimental data reported in ChEMBL document CHEMBL1153703, “Cell-based optimization of novel benzamides as potential antimalarial leads” (Bioorg Med Chem Lett, 2009).

Experiments:
Mus musculus [1] = assay: AUC (0 to 5 hrs) in BALB/c mouse at 20 mg/kg; assay type: ADME, organism-based, Plasma; parameters: time < 4 hr, dose 20 mg/kg; conditions: in vivo, 4 h
Mus musculus [2] = assay: Dose normalised AUC (0 to 5 hrs) in BALB/c mouse at 20 mg/kg, po; assay type: ADME, organism-based; parameters: time < 4 hr, dose 20 mg/kg, route oral; conditions: in vivo, 4 h
[3] = Cytotoxicity against human 293T cells; assay type: cell-based, HEK-293T; conditions: read-out: TC50 (the source's name)
[4] = Cytotoxicity against mouse BAF3 cells; assay type: cell-based; conditions: read-out: TC50 (the source's name)
[5] = Cytotoxicity against CHO cells; assay type: cell-based, Cricetulus griseus; conditions: chinese hamster, read-out: TC50 (the source's name)
[6] = Cytotoxicity against human Hep2 cells; assay type: cell-based, HEp-2; conditions: read-out: TC50 (the source's name)
[7] = Cytotoxicity against human HeLa cells; assay type: cell-based; conditions: read-out: TC50 (the source's name)
[8] = Cytotoxicity against human HuH7 cells; assay type: cell-based, Huh-7; conditions: read-out: TC50 (the source's name)
[9] = Selectivity index, TC50 for mice (Mus musculus) BAF3 cells to EC50 for chloroquine-sensitive Plasmodium falciparum 3D7; assay type: toxicity, cell-based; conditions: read-out: Selectivity Index
[10] = Selectivity index, TC50 for CHO cells to EC50 for chloroquine-sensitive Plasmodium falciparum 3D7; assay type: toxicity, cell-based; conditions: hamster, read-out: Selectivity Index
[11] = Selectivity index, TC50 for human Hep2 cells to EC50 for chloroquine-sensitive Plasmodium falciparum 3D7; assay type: toxicity, cell-based, HEp-2; conditions: read-out: Selectivity Index
[12] = Selectivity index, TC50 for human HeLa cells to EC50 for chloroquine-sensitive Plasmodium falciparum 3D7; assay type: toxicity, cell-based; conditions: read-out: Selectivity Index
[13] = Selectivity index, TC50 for human HuH7 cells to EC50 for chloroquine-sensitive Plasmodium falciparum 3D7; assay type: toxicity, cell-based, Huh-7; conditions: read-out: Selectivity Index

SMILES | AUC (Mus musculus [1]) | AUC (Mus musculus [2]) | further results
CC1CCN(C2CCN(c3cc(C(=O)Nc4cccc(Cl)c4)cc(C(F)(F)F)c3)CC2)CC1 | 7.93 µM·h | 11.42 µg·min/mL | CC50 [3]: > 8 µM; CC50 [4]: > 8 µM; CC50 [5]: > 8 µM; CC50 [6]: > 8 µM; CC50 [7]: > 8 µM; CC50 [8]: > 8 µM; selectivity ratio [9]: > 20; selectivity ratio [10]: > 20; selectivity ratio [11]: > 20; selectivity ratio [12]: > 20; selectivity ratio [13]: > 20
O=C(Nc1cccc(C(F)(F)F)c1)c1cc(N2CCc3ccccc3C2)cc(C(F)(F)F)c1 | 1.67 µM·h | 2.33 µg·min/mL | 

Now from value to molecule, other results behind:

AUC (Mus musculus [1]) | AUC (Mus musculus [2]) | SMILES | further results
3.92 µM·h | 5.31 µg·min/mL | O=C(Nc1cccc(Cl)c1)c1cc(N2CCC(N3CCCC3)CC2)cc(C(F)(F)F)c1 | 
4.37 µM·h | 6.1 µg·min/mL | O=C(Nc1cccc(Cl)c1)c1cc(N2CCC(N3CCCCC3)CC2)cc(C(F)(F)F)c1 | 
4.77 µM·h | 6.94 µg·min/mL | O=C(Nc1cc(N2CCC(N3CCCC3)CC2)cc(C(F)(F)F)c1)c1cccc(C(F)(F)F)c1 | 
4.81 µM·h | 7.01 µg·min/mL | O=C(Nc1cc(Cl)cc(Cl)c1)c1cc(N2CCC(N3CCCC3)CC2)cc(C(F)(F)F)c1 | 
